Test: Acute toxicity (LD50) in mice after intravenous injection into the tail vein, survival after 7 days
Settings: in vivo, mouse, i.v. tail vein, pH 7-7.5, survival after 7 days
Procedure: Mice weighing 18-22 g were given varying quantities of the compound as a […] aqueous solution per kg, adjusted to pH 7-7.5 by intravenous injection into the tail vein. After 7 days, the survival rate of the mice was determined and, from this value, the LD50 in mmol/kg of animal was calculated in the usual way.
(J. Comput. Assist. Tomogr. 7, 1983, 184.)

Work on CC1(C)CC(NC(=O)CCC(=O)O)CC(C)(C)N1[O] [Compound 1, Succinic Acid (2,2,6,6-tetramethyl-1-oxylpiperidin-4-yl)-amide, reference compound] yielded an LD50 at 168 h of 10000 µmol/kg.

For CC1(C)CC(C(=O)O)C(C)(C)N1[O] (centres unmarked) [Compound 2, 2,2,5,5-Tetramethylpyrrolidine-1-oxyl-3-carboxylic Acid, reference compound], the LD50 at 168 h was 10000 µmol/kg.

For CC1(C)C=C(C(=O)NC(CO)C(O)CO)C(C)(C)N1[O] (centres unmarked) [Compound 3, 2,2,5,5-Tetramethyl-3-pyrroline-1-oxyl-3-carboxylic Acid (1,3,4-Trihydroxybut-2-yl)amide], the LD50 at 168 h was 20000 µmol/kg.

Work on CC1(C)C=C(C(=O)NCC(O)CO)C(C)(C)N1[O] (centres unmarked) [Compound 4, 2,2,5,5-Tetramethyl-3-pyrroline-1-oxyl-3-carboxylic Acid (2,3-Dihydroxypropyl)amide] yielded an LD50 at 168 h of 15000 µmol/kg.

Work on CC1(C)CC(C(=O)NC(CO)C(O)CO)C(C)(C)N1[O] (centres unmarked) [Compound 5, 2,2,5,5-Tetramethylpyrrolidine-1-oxyl-3-carboxylic Acid (1,3,4-Trihydroxybut-2-yl)amide] yielded an LD50 at 168 h of 25000 µmol/kg.
